Data: ChEMBL document CHEMBL4804281, “STK4 inhibitors for treatment of hematologic malignancies” (2020)

Tests used:
[1] = biological target: TRAF2 and NCK-interacting protein kinase (Homo sapiens) (UniProt Q9UKE5); assay: Inhibition of TNIK in human NCI-H929 cells at 10 uM by mass spectroscopic analysis relative to control; type: cell-based
[2] = biological target: Serine/threonine-protein kinase WNK3 (Homo sapiens) (UniProt Q9BYP7); assay: Inhibition of WNK3 in human NCI-H929 cells at 10 uM by mass spectroscopic analysis relative to control; type: cell-based
[3] = biological target: Serine/threonine-protein kinase WNK1 (Homo sapiens) (UniProt Q9H4A3); assay: Inhibition of WNK1 in human NCI-H929 cells at 10 uM by mass spectroscopic analysis relative to control; type: cell-based
[4] = biological target: Serine/threonine-protein kinase 24 (Homo sapiens) (UniProt Q9Y6E0); assay: Inhibition of STK24 (unknown origin) using fluorescein-labelled Ser/Thr-07 peptide as substrate incubated for 1 hr in presence of ATP at Km concentration by Z-LYTE assay
Serine/threonine-protein kinase 24 (Homo sapiens), sequence (Q9Y6E0 whole entry, looked up): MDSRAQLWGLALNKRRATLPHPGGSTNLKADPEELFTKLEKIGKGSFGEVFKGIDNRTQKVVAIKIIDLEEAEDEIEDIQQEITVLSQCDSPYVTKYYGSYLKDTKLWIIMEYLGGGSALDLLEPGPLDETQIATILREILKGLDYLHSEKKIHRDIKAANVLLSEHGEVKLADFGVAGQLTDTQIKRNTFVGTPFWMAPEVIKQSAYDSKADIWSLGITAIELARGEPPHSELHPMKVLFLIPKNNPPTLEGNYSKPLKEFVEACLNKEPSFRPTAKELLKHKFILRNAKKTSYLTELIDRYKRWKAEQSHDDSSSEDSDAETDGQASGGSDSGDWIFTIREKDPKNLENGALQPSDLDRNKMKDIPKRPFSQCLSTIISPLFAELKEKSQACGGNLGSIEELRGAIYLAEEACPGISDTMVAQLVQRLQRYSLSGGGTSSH

[5] = biological target: Tyrosine-protein kinase Yes (Homo sapiens) (UniProt P07947); assay: Inhibition of YES in human NCI-H929 cells at 10 uM by mass spectroscopic analysis relative to control; type: cell-based
Tyrosine-protein kinase Yes (Homo sapiens), sequence (P07947 2-543 limits assumed): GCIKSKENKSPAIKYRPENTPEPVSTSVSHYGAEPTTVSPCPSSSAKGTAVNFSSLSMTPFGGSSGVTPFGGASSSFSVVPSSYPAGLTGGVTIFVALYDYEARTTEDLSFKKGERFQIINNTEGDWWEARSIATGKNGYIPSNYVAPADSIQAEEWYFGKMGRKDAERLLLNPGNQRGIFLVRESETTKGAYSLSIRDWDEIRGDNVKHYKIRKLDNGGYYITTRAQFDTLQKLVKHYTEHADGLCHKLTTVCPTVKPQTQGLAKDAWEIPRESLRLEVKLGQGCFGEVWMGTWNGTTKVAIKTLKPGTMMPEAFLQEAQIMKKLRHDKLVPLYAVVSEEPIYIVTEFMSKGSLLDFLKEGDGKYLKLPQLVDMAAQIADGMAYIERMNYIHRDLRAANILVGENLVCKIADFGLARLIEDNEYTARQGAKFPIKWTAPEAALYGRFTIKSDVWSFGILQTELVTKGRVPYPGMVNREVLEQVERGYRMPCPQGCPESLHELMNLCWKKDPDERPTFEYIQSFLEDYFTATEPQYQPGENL

[6] = biological target: MAP kinase-activated protein kinase 2 (Homo sapiens) (UniProt P49137); assay: Inhibition of MAPKAPK2 in human NCI-H929 cells at 10 uM by mass spectroscopic analysis relative to control; type: cell-based
MAP kinase-activated protein kinase 2 (Homo sapiens), sequence (P49137 whole entry, looked up): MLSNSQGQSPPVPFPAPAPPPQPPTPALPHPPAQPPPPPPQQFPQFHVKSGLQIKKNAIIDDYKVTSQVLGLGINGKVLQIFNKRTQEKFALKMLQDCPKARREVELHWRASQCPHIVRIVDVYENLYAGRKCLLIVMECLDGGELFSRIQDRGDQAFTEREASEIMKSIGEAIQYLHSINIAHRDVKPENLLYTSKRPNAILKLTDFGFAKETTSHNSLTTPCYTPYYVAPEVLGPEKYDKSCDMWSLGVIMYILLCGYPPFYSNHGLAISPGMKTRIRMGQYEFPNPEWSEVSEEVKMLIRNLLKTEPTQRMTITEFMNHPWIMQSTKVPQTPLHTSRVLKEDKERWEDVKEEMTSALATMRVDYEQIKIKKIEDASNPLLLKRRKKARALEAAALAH

[7] = biological target: Serine/threonine-protein kinase WNK2 (Homo sapiens) (UniProt Q9Y3S1); assay: Inhibition of WNK2 in human NCI-H929 cells at 10 uM by mass spectroscopic analysis relative to control; type: cell-based
[8] = biological target: T1, Kinase suppressor of Ras 2 (Homo sapiens) (UniProt Q6VAB6); assay: Inhibition of KSR2 in human NCI-H929 cells at 10 uM by mass spectroscopic analysis relative to control; type: cell-based
T1 sequence (whole entry): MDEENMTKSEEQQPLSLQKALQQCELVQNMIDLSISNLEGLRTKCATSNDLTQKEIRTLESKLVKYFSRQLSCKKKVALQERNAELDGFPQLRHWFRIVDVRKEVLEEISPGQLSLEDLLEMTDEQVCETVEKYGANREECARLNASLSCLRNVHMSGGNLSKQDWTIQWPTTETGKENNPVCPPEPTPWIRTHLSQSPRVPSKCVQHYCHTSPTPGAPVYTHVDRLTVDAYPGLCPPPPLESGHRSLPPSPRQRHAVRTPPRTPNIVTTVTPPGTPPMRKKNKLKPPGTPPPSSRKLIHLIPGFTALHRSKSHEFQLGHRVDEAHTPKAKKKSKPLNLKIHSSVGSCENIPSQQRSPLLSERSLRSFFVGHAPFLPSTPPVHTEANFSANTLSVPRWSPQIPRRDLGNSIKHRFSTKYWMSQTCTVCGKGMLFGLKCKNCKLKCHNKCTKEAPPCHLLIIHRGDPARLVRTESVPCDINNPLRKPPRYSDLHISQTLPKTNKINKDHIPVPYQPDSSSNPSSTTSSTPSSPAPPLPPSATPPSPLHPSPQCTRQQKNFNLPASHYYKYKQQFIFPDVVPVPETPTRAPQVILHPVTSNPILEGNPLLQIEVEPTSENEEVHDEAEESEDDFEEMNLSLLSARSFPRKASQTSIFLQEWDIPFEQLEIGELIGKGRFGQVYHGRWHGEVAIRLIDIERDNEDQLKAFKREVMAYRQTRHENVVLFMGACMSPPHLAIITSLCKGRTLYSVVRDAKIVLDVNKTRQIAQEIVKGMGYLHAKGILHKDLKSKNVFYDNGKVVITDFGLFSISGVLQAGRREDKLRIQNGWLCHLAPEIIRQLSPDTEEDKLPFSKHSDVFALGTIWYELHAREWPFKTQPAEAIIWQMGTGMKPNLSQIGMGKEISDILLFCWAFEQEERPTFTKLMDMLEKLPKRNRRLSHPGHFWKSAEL

[9] = biological target: Proto-oncogene tyrosine-protein kinase Src (Homo sapiens) (UniProt P12931); assay: Inhibition of SRC in human NCI-H929 cells at 10 uM by mass spectroscopic analysis relative to control; type: cell-based
Proto-oncogene tyrosine-protein kinase Src (Homo sapiens), sequence (P12931 2-536 limits assumed): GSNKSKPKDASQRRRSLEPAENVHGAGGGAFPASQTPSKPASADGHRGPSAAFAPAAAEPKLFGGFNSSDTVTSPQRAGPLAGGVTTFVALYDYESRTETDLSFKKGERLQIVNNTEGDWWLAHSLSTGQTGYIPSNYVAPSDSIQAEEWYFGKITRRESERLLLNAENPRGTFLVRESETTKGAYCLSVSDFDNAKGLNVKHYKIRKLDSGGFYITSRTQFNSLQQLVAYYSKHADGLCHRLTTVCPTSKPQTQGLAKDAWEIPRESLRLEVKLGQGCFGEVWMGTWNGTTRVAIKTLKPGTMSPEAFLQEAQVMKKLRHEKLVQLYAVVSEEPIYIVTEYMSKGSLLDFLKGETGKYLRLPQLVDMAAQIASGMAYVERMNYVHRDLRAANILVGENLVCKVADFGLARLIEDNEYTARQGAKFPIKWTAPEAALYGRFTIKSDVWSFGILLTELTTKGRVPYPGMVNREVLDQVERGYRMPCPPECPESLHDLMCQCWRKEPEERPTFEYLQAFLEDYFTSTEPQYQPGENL

[10] = biological target: T2, Mitogen-activated protein kinase 12 (Homo sapiens) (UniProt P53778); assay: Inhibition of P38gamma in human NCI-H929 cells at 10 uM by mass spectroscopic analysis relative to control; type: cell-based
T2 sequence (whole entry): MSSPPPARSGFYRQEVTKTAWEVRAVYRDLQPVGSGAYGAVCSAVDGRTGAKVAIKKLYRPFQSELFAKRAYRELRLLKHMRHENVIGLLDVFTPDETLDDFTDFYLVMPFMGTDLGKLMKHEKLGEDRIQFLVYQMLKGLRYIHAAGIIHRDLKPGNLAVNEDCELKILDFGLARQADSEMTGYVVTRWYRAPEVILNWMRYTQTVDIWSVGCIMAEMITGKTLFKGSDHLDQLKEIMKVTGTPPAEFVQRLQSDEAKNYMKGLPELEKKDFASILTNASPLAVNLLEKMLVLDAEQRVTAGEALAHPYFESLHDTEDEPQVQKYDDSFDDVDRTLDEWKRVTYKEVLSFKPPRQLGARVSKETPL

[11] = biological target: Calcium/calmodulin-dependent protein kinase type II subunit alpha (Homo sapiens) (UniProt Q9UQM7); assay: Inhibition of CAMK2A in human NCI-H929 cells at 10 uM by mass spectroscopic analysis relative to control; type: cell-based
Calcium/calmodulin-dependent protein kinase type II subunit alpha (Homo sapiens), sequence (Q9UQM7 whole entry): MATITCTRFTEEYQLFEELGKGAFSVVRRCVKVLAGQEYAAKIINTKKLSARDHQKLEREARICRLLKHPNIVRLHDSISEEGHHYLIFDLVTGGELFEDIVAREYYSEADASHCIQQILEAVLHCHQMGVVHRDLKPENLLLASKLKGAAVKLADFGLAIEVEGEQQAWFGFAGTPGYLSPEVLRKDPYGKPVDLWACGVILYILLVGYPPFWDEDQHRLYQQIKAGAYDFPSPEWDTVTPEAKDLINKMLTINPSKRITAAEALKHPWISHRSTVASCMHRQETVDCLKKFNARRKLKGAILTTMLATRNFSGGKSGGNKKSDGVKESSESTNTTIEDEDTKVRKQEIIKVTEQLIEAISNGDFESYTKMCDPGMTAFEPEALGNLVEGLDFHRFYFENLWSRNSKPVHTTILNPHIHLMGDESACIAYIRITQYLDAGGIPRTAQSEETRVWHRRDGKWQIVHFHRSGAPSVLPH

[12] = biological target: Mitogen-activated protein kinase kinase kinase kinase 4 (Homo sapiens) (UniProt O95819); assay: Inhibition of HGK in human NCI-H929 cells at 10 uM by mass spectroscopic analysis relative to control; type: cell-based
Mitogen-activated protein kinase kinase kinase kinase 4 (Homo sapiens), sequence (O95819 2-1239 limits assumed): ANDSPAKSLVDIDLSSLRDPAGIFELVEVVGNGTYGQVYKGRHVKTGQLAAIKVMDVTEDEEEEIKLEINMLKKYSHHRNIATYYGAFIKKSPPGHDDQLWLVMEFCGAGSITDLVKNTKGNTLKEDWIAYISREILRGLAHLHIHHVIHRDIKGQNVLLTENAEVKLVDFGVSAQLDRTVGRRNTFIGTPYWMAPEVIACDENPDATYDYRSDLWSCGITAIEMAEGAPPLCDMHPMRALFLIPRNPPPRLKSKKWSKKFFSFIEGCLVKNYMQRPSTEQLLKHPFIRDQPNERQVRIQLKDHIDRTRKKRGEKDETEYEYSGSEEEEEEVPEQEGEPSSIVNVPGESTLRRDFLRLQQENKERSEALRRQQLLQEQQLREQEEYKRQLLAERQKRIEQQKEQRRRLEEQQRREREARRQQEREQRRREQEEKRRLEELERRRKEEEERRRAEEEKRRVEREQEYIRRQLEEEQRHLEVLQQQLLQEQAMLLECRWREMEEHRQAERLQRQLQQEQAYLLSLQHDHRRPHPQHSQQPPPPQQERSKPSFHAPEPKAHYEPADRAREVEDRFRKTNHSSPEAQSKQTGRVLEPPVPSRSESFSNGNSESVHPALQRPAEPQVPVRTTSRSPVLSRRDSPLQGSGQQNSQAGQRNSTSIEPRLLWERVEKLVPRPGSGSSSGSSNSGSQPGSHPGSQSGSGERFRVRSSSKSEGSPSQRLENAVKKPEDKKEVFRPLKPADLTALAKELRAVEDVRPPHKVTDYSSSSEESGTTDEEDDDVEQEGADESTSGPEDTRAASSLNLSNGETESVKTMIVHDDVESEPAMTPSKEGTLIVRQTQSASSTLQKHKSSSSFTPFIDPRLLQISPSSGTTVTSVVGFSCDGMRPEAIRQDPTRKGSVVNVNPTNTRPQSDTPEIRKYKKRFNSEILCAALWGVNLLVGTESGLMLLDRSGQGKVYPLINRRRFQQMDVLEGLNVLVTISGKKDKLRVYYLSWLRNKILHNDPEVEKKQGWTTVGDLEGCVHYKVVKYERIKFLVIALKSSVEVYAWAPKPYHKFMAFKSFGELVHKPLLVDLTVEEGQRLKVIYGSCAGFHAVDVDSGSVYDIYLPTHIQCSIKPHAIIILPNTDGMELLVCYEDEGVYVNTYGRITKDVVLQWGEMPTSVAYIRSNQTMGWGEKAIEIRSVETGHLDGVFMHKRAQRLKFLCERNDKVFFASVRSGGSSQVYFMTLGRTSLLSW

[13] = biological target: T3, Serine/threonine-protein kinase 4 (Homo sapiens) (UniProt Q13043); assay: Inhibition of STK4 (unknown origin) using fluorescein-labelled Ser/Thr-07 peptide as substrate incubated for 1 hr in presence of ATP at Km concentration by Z-LYTE assay
T3 sequence (whole entry): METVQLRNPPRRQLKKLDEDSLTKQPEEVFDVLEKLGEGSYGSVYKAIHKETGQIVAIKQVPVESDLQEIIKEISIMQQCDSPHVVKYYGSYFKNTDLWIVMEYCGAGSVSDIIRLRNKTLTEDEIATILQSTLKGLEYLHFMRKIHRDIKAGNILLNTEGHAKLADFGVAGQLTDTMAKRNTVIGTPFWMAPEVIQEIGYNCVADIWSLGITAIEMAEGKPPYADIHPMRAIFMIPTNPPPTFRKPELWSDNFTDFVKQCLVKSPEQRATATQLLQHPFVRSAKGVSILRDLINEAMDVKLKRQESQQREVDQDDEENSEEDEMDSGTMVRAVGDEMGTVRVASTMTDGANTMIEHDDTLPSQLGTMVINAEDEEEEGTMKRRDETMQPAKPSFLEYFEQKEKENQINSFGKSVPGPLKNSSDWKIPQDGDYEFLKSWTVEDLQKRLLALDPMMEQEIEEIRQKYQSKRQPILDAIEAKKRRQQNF

TRAF2 and NCK-interacting protein kinase (Homo sapiens), sequence (Q9UKE5 whole entry, looked up): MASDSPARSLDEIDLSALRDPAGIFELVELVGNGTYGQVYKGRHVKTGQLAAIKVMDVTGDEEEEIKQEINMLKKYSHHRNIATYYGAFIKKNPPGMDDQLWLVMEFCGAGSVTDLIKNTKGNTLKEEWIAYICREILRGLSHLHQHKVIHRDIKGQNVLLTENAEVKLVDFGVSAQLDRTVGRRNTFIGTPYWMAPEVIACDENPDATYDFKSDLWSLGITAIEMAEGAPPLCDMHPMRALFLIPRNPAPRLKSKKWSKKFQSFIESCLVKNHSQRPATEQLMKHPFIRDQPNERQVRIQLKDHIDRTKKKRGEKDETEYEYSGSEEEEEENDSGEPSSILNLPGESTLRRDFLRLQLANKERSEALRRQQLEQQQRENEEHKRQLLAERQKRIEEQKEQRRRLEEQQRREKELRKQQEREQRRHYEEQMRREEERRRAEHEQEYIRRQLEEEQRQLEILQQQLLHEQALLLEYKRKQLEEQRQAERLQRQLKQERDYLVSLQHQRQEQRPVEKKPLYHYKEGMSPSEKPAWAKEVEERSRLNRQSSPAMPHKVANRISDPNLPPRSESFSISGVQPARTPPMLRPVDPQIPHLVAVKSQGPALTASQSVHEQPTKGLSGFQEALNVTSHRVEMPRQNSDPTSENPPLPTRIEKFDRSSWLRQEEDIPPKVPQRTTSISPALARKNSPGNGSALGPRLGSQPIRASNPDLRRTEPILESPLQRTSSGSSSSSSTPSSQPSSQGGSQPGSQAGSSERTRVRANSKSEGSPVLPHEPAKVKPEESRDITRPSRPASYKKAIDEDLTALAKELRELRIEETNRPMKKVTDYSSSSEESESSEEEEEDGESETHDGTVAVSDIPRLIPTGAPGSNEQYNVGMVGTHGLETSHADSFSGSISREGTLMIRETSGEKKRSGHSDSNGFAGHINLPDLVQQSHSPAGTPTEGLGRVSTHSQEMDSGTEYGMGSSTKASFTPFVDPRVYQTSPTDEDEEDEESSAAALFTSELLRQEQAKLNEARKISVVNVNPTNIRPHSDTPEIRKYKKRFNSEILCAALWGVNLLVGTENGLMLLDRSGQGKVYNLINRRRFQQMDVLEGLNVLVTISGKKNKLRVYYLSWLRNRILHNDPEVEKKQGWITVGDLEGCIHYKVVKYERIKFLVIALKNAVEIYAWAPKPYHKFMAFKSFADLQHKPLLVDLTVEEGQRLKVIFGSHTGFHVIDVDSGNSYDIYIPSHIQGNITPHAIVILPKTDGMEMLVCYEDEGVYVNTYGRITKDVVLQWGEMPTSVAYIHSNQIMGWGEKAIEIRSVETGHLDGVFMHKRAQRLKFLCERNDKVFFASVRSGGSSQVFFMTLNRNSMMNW

SMILES | inhibition [1] | inhibition [2] | inhibition [3] | IC50 [4] | inhibition [5] | inhibition [6] | inhibition [7] | inhibition [8] | inhibition [9] | inhibition [10] | inhibition [11] | inhibition [12] | IC50 [13]
Nc1ncc(-c2cccc3ncsc23)cc1-c1ccc2c(c1)CCNC2=O | > 90% | 0% | 0% | > 900 nM | 0% | 0% | 0% | 0% | 0% | 0% | 0% | > 90% | < 40 nM
Nc1ncc(-c2cccc([N+](=O)[O-])c2F)cc1-c1ccc2c(c1)CCNC2=O | > 90% | > 100% | > 100% | > 900 nM | 0% | 0% | > 100% | 0% | 0% | 0% | 0% | > 90% | < 40 nM
CN(C1CC1)S(=O)(=O)c1ccc(-c2cnc(N)c(-c3ccc4c(c3)CCNC4=O)c2)c(F)c1 | > 90% | 0% | 0% | 40 nM | 0% | 0% | 0% | 0% | 0% | 0% | 0% | > 90% | < 40 nM
Nc1ncc(-c2ccc(NS(=O)(=O)C3CC3)cc2OC2CCCCC2)cc1-c1ccc2c(c1)CCNC2=O | 50% | 0% | 0% | > 900 nM | 0% | 0% | 0% | 0% | 0% | 0% | 0% | > 90% | < 40 nM
Nc1ncc(-c2ccc(NS(=O)(=O)C3CC3)cc2F)cc1-c1ccc2c(c1)CCNC2=O | > 90% | 0% | 0% | 40 nM | 0% | 0% | 0% | 0% | 0% | 0% | 0% | > 90% | < 40 nM
COc1cc(NS(=O)(=O)C2CC2)ccc1-c1cnc(N)c(-c2ccc3c(c2)CCNC3=O)c1 | > 90% | 0% | 0% | 200 nM | > 90% | 0% | 0% | 0% | 0% | 0% | 0% | > 90% | < 40 nM
